From article PMC6185871, “Discovery of super soft-drug modulators of sphingosine-1-phosphate receptor 1” (Bioorganic & Medicinal Chemistry Letters, 2018)

Assays:
[1] = Kinetic aqueous solubility by laser nephelometry; type: physicochemical
[2] = Chromatographic hydrophobicity index (CHI) logD by reverse-phase HPLC; type: physicochemical
[3] = in vitro; type: in vitro ADME, human; conditions: for half-life: human, plasma
Protocol: (§1) We selected human plasma stability as a model for human blood metabolism. […] S1PR1 activity was measured using a PathHunter β-Arrestin recruitment assay.[23]

[4] = Human skin S9 stability; type: in vitro ADME; conditions: human skin S9 fraction, skin S9 over 180 mins in the presence of enzymatic cofactors
Description: It may be that the esterases responsible for the metabolism of 12f are present in both human plasma and skin S9 fraction or that skin and plasma esterases have similar substrate affinities.

[5] = molecular target: T1, S1PR1 (Homo sapiens, UniProt P21453); assay: PathHunter CHO-K1 EDG1 β-Arrestin recruitment assay; type: cell-based
T1 construct: host or cells: CHO-K1 (PathHunter EDG1 β-Arrestin cell line)
T1 sequence (P21453 whole entry): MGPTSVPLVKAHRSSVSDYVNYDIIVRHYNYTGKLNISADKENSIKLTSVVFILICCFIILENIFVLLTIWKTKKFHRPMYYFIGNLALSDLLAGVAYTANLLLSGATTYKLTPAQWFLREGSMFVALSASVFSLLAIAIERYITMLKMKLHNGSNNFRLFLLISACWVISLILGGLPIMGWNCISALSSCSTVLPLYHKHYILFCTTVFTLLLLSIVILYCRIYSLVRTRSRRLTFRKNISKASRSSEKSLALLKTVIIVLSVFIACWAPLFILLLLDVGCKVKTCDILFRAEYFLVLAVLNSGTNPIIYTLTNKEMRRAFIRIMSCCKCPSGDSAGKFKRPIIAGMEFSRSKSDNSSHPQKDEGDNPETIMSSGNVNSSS
Protocol: as §1
[23] The PathHunter® CHO‐K1 EDG1 β‐Arrestin Cell Line (Discoverx) was used to assess agonist activity of the compounds. Briefly, compound at 5× desired concentration was added to cells and incubated at 37 °C for 90 min. Assay signal was generated through a single addition of PathHunter Detection reagent cocktail, followed by a one hour incubation at room temperature. Microplates were read following signal generation with a PerkinElmer Envision instrument for chemiluminescent signal detection. Percentage activity was calculated using the following formula: % Activity = 100% × (mean RLU of test sample − mean RLU of vehicle control)/(mean MAX control ligand − mean RLU of vehicle control).

[6] = tested on: Langerhans cells migrating to the lymph node; set-up: method as in PMID 19194476; conditions: mice, topical application; cited from earlier work
[7] = tested on: plaque psoriasis; set-up: method as in PMID 25127208; conditions: oral, phase II clinical trial of psoriasis; cited from earlier work
[8] = PathHunter β-Arrestin, n of 2, geometric mean, range in brackets

SMILES | Kinetic solubility [1] | CHI logD [2] | half-life [3] | S1PR1 pIC50 [5, 8] | other results
CCC/N=C1\S/C(=C\c2ccc(CC(=O)OC)cc2)C(=O)N1c1ccccc1O [Compound 15a] |  | 3.2 | > 180 min |  | 
CCC/N=C1\S/C(=C\c2ccc(C(=O)OC)c(Cl)c2)C(=O)N1c1ccccc1C [Compound 5a] | 39 µM | >4.4 | > 180 min | 8.6 (0.1) | improvement in S1PR1 activity compared to 5b ([5]; compared to 5b): 100 fold
CCCCCCCCc1ccc(CCC(N)(CO)CO)cc1 [fingolimod] |  |  |  |  | number of Langerhans cells migrating to the lymph node [6]: reduction
CCC/N=C1\S/C(=C\c2ccc(C(=O)OC)cc2)C(=O)N1c1ccccc1C [Compound 5b] | 28 µM | >4.4 | > 180 min | 6.5 (0) | 
CCC/N=C1\S/C(=C\c2ccc(OC[C@H](O)CO)c(Cl)c2)C(=O)N1c1ccccc1C [Ponesimod, ponesimod, reference compound] | 110 µM | 3.1 | > 180 min | 7.9 (0) | systemic side effects observed [7]: lymphopenia and transient bradycardia
CCC/N=C1\S/C(=C\c2ccc(C(=O)NCCO)cc2)C(=O)N1c1ccccc1C [Compound 5d] | >250 µM | 2.3 | > 180 min | 7.0 (0) | 
CCC/N=C1\S/C(=C\c2ccc(OC[C@H](O)CO)c(Cl)c2)C(=O)N1c1ccccc1O [Compound 6] |  |  |  |  | IC50 ([5]; PathHunter β-Arrestin, n of 2, geometric mean, range in brackets, read-out: S1PR1 pIC50 (converted)): 12.6 nM

Further lines, with some results ahead:

Kinetic solubility [1] | CHI logD [2] | half-life [3] | S1PR1 pIC50 [5, 8] | SMILES | other results
79 µM | 3.5 | > 180 min |  | CCC/N=C1\S/C(=C\c2ccc(CCC(=O)OC)cc2)C(=O)N1c1ccccc1O [Compound 15b] | 
117 µM | 3.0 | 180 min |  | CCC/N=C1\S/C(=C\c2ccc(C(=O)OCCN3CCOCC3)cc2)C(=O)N1c1ccccc1O [Compound 12d] | half-life at 3 h [4]: 152 min
 |  | > 180 min |  | CCC/N=C1\S/C(=C\c2ccc(C(=O)O)cc2)C(=O)N1c1ccccc1O [Compound 11] | S1PR1 modulator activity (in words) [5]: inactive
183 µM | 2.3 | > 180 min |  | CCC/N=C1\S/C(=C\c2ccc(C(=O)OCCCO)cc2)C(=O)N1c1ccccc1O [Compound 12b] | 
 | 1.9 | > 180 min |  | CCC/N=C1\S/C(=C\c2ccc(C(=O)NCC(=O)N(C)C)cc2)C(=O)N1c1ccccc1O [Compound 12a] | metabolism in human plasma stability assay (in words) [3]: lack of metabolism
163 µM | 1.0 |  | <6 (0) | CCC/N=C1\S/C(=C\c2ccc(C(=O)O)cc2)C(=O)N1c1ccccc1C [Compound 4a] | 
79 µM | 3.3 | 9 min |  | CCC/N=C1\S/C(=C\c2ccc(C(=O)OCc3oc(=O)oc3C)cc2)C(=O)N1c1ccccc1O [Compound 12f] | S1PR1 modulator activity (in words) [5]: inactive; metabolism in human plasma stability assay (in words) [3]: rapidly degraded; half-life at 3 h [4]: 23 min
>250 µM | 1.8 | > 180 min |  | CCC/N=C1\S/C(=C\c2ccc(C(=O)OCC(O)CO)cc2)C(=O)N1c1ccccc1O (stereo not drawn) [Compound 12c] | 
 | 3.4 | > 180 min | 6.9 (0) | CCC/N=C1\S/C(=C\c2ccc(C(=O)OCCO)cc2)C(=O)N1c1ccccc1C [Compound 5c] | 
79 µM | 2.8 | 61 min |  | CCC/N=C1\S/C(=C\c2ccc(C(=O)OCC3COC(=O)O3)cc2)C(=O)N1c1ccccc1O (stereo not drawn) [Compound 12e] | metabolism in human plasma stability assay (in words) [3]: did not show sufficient clearance; half-life at 3 h [4]: 40 min
